What was measured:
CDK2/Cyclin E1 = CDK2/Cyclin E1 (Homo sapiens, UniProt P24941); test: CDK2/Cyclin E1 TR-FRET biochemical assay, 1 mM ATP; conditions: 0.15 μM Rb (Ser780)-biotin substrate, 90 min reaction, Table 2
CDK1/Cyclin B1 = CDK1/Cyclin B1 (Homo sapiens, UniProt P06493); test: CDK1/Cyclin B1 TR-FRET biochemical assay, 1 mM ATP; conditions: 0.15 μM Rb (Ser780)-biotin substrate, 90 min reaction, Table 2
Chain of CDK1/Cyclin B1 (P06493 whole entry): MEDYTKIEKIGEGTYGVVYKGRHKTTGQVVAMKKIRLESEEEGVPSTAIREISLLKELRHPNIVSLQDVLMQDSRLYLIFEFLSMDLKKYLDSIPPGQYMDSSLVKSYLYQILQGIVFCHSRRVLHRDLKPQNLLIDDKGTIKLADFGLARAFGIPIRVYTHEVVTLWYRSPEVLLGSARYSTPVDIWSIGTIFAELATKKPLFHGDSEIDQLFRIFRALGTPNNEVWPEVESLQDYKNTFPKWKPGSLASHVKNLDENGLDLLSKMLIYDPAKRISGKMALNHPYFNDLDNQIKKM
Chain of CDK1/Cyclin B1 (P14635 whole entry partner): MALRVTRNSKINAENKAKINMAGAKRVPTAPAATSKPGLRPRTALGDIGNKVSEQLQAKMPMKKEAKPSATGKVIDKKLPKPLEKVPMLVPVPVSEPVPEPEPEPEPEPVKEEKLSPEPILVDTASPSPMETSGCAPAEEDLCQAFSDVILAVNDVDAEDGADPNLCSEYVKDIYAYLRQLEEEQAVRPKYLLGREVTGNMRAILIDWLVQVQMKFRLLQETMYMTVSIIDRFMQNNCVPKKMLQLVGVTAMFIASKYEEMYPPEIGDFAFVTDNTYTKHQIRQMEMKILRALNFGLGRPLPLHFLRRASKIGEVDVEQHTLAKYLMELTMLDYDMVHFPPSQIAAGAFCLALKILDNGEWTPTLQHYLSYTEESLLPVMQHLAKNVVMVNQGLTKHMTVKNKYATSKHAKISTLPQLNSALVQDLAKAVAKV

| IC50 (CDK2/Cyclin E1) [µM] | IC50 (CDK1/Cyclin B1) [µM] | SMILES |
| --- | --- | --- |
| 0.308 | > 10 | CC(C)(C)c1cncc(C2CCC(c3cc(Nc4ccc5c(c4F)CS(=O)(=O)N5)n[nH]3)C2)c1 (stereo not shown) [Example 162, 5-((5-(3-(5-(tert-butyl)pyridin-3-yl)cyclopentyl)-1H-pyrazol-3-yl)amino)-4-fluoro-1,3-dihydrobenzo[c]isothiazole 2,2-dioxide] |
| 3.18 | > 10 | CC(C)(C)c1nnc([C@H]2CC[C@H](c3cc(Nc4ccc5c(c4F)CNS5(=O)=O)n[nH]3)C2)o1 (relative stereo) [Example 97, trans-5-((5-(3-(5-(tert-butyl)-1,3,4-oxadiazol-2-yl)cyclopentyl)-1H-pyrazol-3-yl)amino)-4-fluoro-2,3-dihydrobenzo[d]isothiazole 1,1-dioxide] |
| 8.51 | > 10 | CC(C)(C)c1ccc([C@H]2CC[C@H](c3cc(Nc4ccc5c(c4F)CNS5(=O)=O)n[nH]3)C2)o1 (relative stereo) [Example 108, trans-5-((5-(3-(5-(tert-butyl)furan-2-yl)cyclopentyl)-1H-pyrazol-3-yl)amino)-4-fluoro-2,3-dihydrobenzo[d]isothiazole 1,1-dioxide] |
| 3.99 | > 10 | Cc1cccc(C2CCC(c3cc(Nc4cc5c(cc4F)S(=O)(=O)NC5)n[nH]3)C2)n1 (stereo not shown) [Example 12, 6-fluoro-5-((5-(3-(6-methylpyridin-2-yl)cyclopentyl)-1H-pyrazol-3-yl)amino)-2,3-dihydrobenzo[d]isothiazole 1,1-dioxide] |
| 0.107 | 8.47 | Cc1ccnc(C2CCC(c3cc(Nc4ccc5c(c4F)CNS5(=O)=O)n[nH]3)C2)n1 (stereo not shown) [Example 124, 4-fluoro-5-((5-(3-(4-methylpyrimidin-2-yl)cyclopentyl)-1H-pyrazol-3-yl)amino)-2,3-dihydrobenzo[d]isothiazole 1,1-dioxide] |
| 0.06 | 4.95 | CC(C)(C)c1coc(C2CCC(c3cc(Nc4ccc5c(c4)CS(=O)(=O)N5)n[nH]3)C2)n1 (stereo not shown) [Example 136, 5-((5-(3-(4-(tert-butyl)oxazol-2-yl)cyclopentyl)-1H-pyrazol-3-yl)amino)-1,3-dihydrobenzo[c]isothiazole 2,2-dioxide] |
| 0.034 | 6.77 | CC(C)(C)c1ccnc(C2CCC(c3cc(Nc4ccc5c(c4F)CNS5(=O)=O)[nH]n3)C2)c1 (stereo not shown) [Example 117, 5-((3-(3-(4-(tert-butyl)pyridin-2-yl)cyclopentyl)-1H-pyrazol-5-yl)amino)-4-fluoro-2,3-dihydrobenzo[d]isothiazole 1,1-dioxide] |
| 2.03 | > 10 | CC(C)(C)c1cnc(C2CCC(c3cc(Nc4ccc5c(c4)CS(=O)(=O)N5)n[nH]3)C2)s1 (stereo not shown) [Example 137, 5-((5-(3-(5-(tert-butyl)thiazol-2-yl)cyclopentyl)-1H-pyrazol-3-yl)amino)-1,3-dihydrobenzo[c]isothiazole 2,2-dioxide] |
| 0.0086 | 2.87 | CC(C)c1cnc(C2CCC(c3cc(Nc4ccc5c(c4F)CNS5(=O)=O)n[nH]3)C2)o1 (single isomer, unassigned) [Example 109a, 4-fluoro-5-((5-(3-(5-isopropyloxazol-2-yl)cyclopentyl)-1H-pyrazol-3-yl)amino)-2,3-dihydrobenzo[d]isothiazole 1,1-dioxide] |
| 0.015 | 2.35 | CC(C)c1cnc(C2CCC(c3cc(Nc4ccc5c(c4)CN=S5(C)=O)n[nH]3)C2)o1 (stereo not shown) [Example 168, 5-((5-(3-(5-isopropyloxazol-2-yl)cyclopentyl)-1H-pyrazol-3-yl)amino)-1-methyl-3H-1λ^4-benzo[d]isothiazole 1-oxide] |
| 0.264 | > 10 | CCOC(=O)c1nc(C2CCC(c3cc(Nc4ccc5c(c4F)CNS5(=O)=O)n[nH]3)C2)oc1C(C)C (stereo not shown) [Example 115, ethyl 2-(3-(3-((4-fluoro-1,1-dioxido-2,3-dihydrobenzo[d]isothiazol-5-yl)amino)-1H-pyrazol-5-yl)cyclopentyl)-5-isopropyloxazole-4-carboxylate] |
| 0.102 | > 10 | CC(C)(C)c1cnc(C2CCC(c3cc(Nc4cc5c(cc4F)S(=O)(=O)NC5)n[nH]3)C2)o1 (single isomer, unassigned) [Example 17c, 5-((5-(3-(5-(tert-butyl)oxazol-2-yl)cyclopentyl)-1H-pyrazol-3-yl)amino)-6-fluoro-2,3-dihydrobenzo[d]isothiazole 1,1-dioxide] |
| 0.084 | 3.93 | CC(C)(C)c1cccc(C2CCC(c3cc(Nc4ccc5c(c4F)CS(=O)(=O)N5)n[nH]3)C2)n1 (stereo not shown) [Example 158, 5-((5-(3-(6-(tert-butyl)pyridin-2-yl)cyclopentyl)-1H-pyrazol-3-yl)amino)-4-fluoro-1,3-dihydrobenzo[c]isothiazole 2,2-dioxide] |
| 7.71 | > 10 | CC(C)(C)c1cnc(C2CCC(c3cc(Nc4cc5c(cc4F)S(=O)(=O)NC5)n[nH]3)C2)o1 (single isomer, unassigned) [Example 17b, 5-((5-(3-(5-(tert-butyl)oxazol-2-yl)cyclopentyl)-1H-pyrazol-3-yl)amino)-6-fluoro-2,3-dihydrobenzo[d]isothiazole 1,1-dioxide] |
| 1.4 | > 10 | C=C(C)c1cc(C2CCC(c3cc(Nc4ccc5c(c4F)CS(=O)(=O)N5)n[nH]3)C2)n[nH]1 (stereo not shown) [Example 151, 4-fluoro-5-((5-(3-(5-(prop-1-en-2-yl)-1H-pyrazol-3-yl)cyclopentyl)-1H-pyrazol-3-yl)amino)-1,3-dihydrobenzo[c]isothiazole 2,2-dioxide] |
| 2.44 | > 10 | CC(C)(C)c1ccc([C@@H]2CC[C@H](c3cc(Nc4ccc5c(c4F)CNS5(=O)=O)n[nH]3)C2)o1 (relative stereo) [Example 107, cis-5-((5-(3-(5-(tert-butyl)furan-2-yl)cyclopentyl)-1H-pyrazol-3-yl)amino)-4-fluoro-2,3-dihydrobenzo[d]isothiazole 1,1-dioxide] |
| 0.0015 | 0.537 | CC(C)(O)c1cnc(C2CCC(c3cc(Nc4ccc5c(c4F)CS(=O)(=O)C5)n[nH]3)C2)o1 (stereo not shown) [Example 179, 4-fluoro-5-((5-(3-(5-(2-hydroxypropan-2-yl)oxazol-2-yl)cyclopentyl)-1H-pyrazol-3-yl)amino)-1,3-dihydrobenzo[c]thiophene 2,2-dioxide] |
| 1.74 | > 10 | Cc1cc(C(C)(C)C)cc(C2CCC(c3cc(Nc4ccc5c(c4F)CNS5(=O)=O)n[nH]3)C2)n1 (stereo not shown) [Example 123, 5-((5-(3-(4-(tert-butyl)-6-methylpyridin-2-yl)cyclopentyl)-1H-pyrazol-3-yl)amino)-4-fluoro-2,3-dihydrobenzo[d]isothiazole 1,1-dioxide] |
| 0.439 | > 10 | Cc1cc(C(C)(C)C)cc(C2CCC(c3cc(Nc4ccc5c(c4F)CS(=O)(=O)C5)n[nH]3)C2)n1 (stereo not shown) [Example 175, 5-((5-(3-(4-(tert-butyl)-6-methylpyridin-2-yl)cyclopentyl)-1H-pyrazol-3-yl)amino)-4-fluoro-1,3-dihydrobenzo[c]thiophene 2,2-dioxide] |
| 0.564 | > 10 | CC(C)(O)c1cc(C2CCC(c3cc(Nc4ccc5c(c4F)CNS5(=O)=O)n[nH]3)C2)n[nH]1 (stereo not shown) [Example 101, 4-fluoro-5-((5-(3-(5-(2-hydroxypropan-2-yl)-1H-pyrazol-3-yl)cyclopentyl)-1H-pyrazol-3-yl)amino)-2,3-dihydrobenzo[d]isothiazole 1,1-dioxide] |
